Patent publication US20210386721A1, “SUBSTITUTED PHENYLPROPENYL PYRIDINE DERIVATIVES, THEIR PREPARATION AND PHARMACEUTICAL APPLICATIONS” (SHANGHAI HAIYAN PHARMACEUTICAL TECHNOLOGY CO., LTD., priority 2019, published 2021)

Tests used:
[1] = tested on: Jurkat T(PD1 Luc-)/CHOK1(PDL-1); experiment: Jurkat T(PD1 Luc-)/CHOK1(PDL-1) cell experiment (luciferase reporter); type: cell-based; details: CHO/PD-L1-OKT3 cells co-cultured with Jurkat/PD1-NFAT-Luc cells for 6 hours; Bio-Glo luciferase signal
Experimental: Assay 2 Jurkat T(PD1 Luc-)/CHOK1(PDL-1) Cell Experiment
G418, Sangon Biotech #A100859-0001, Cat Number G108BA0003, 5 ml of deionized water being added into each bottle, store at 4° C.
CHO/PD-L1-OKT3 cells (constructed by referring to Promega's PD-1/PD-L1 Blockade Bioassays system) cultured in F-12K medium (containing 10% FBS, 800 ug/ml G418, 400 ug/ml D Hygromycin B) were planted into a 96-well plate at 2×10^4 per well, and incubated for 24 hours at 37° C. and 5% CO2. part of the medium was removed, and the test compound dissolved in DMSO with a final concentration of 1 uM was added, and DMSO at the same concentration was added into the control cells. Jurkat/PD1-NFAT-Luc cells (constructed by referring to Promega's PD-1/PD-L1 Blockade Bioassays system) were added at 5×10^5 per well at the same time, and cultured for 6 hours. The corresponding luciferase signal was detected by Bio-Glo™ (Promega, G7940) reagent. The EC50 of each compound to be tested was calculated through the non-linear regression of XLfit software.

PD-1/PD-L1 = biological target: T1, PD-1/PD-L1 (Homo sapiens, UniProt Q9NZQ7); experiment: PD-1/PD-L1 binding assay (HTRF, PPI-HTRF); details: HTRF PD1/PD-L1 binding assay kit; 10 nM Tag1-PD-L1; 25° C.
T1 construct: purchased Cisbio 63ADK000CPDPEB
Experimental: Assay 1 PD-1/PD-L1 Binding Assay
DMSO is from Sigma, Cat No: D5879; 384-well small volume plate (white) is from Greiner, Cat No: 784075; Anti-PD1 blocking antibody (IC50: 10 nM) is from Cisbio, Cat No: 64CUS000C-1a; Anti-PDL1 blocking antibody (IC50: 0.3 nM) is from Cisbio, Cat No: 64CUS000C-1b; HTRF PD1/PD-L1 binding assay kit is from Cisbio, Cat No: 63ADK000CPDPEB.
1. Prepare the compound to be tested at 2x concentration into 1× reaction buffer containing 4% DMSO;
2. Tag1-PD-L1 protein and Tag2-PD1 protein were prepared in 1× reaction buffer at concentrations of […] and 10 nM, respectively. The final reaction concentration of the experiment was 10 nM Tag1-PD-L1 and 2 nM […];
3. anti-Tag1-Eu3+ antibody is prepared in 1x concentration detection buffer at a ratio of 1:100;
4. anti-Tag2-XL665 antibody is prepared in 1x concentration detection buffer at a ratio of 1:25; Experimental steps
1. 5 μL of compounds to be tested (2×) was added;
2. 2.5 ul Tag1-PD-L1 protein and 2.5 ul Tag2-PD1 protein were added respectively, and the total reaction system is 10 ul, and reacted at 25° C. for 15 minutes;
3. 5 ul anti-Tag1-Eu3+ antibody and 5 ul anti-Tag2-XL665 antibody were added respectively, and reacted at 25° C. for 16 hours;
4. The fluorescence microplate reader HTRF reading program was used to read two readings at 665 nm and 620 nm, the ratio of the two wavelengths was used to judge the activity of the compound, and the IC50 of the compound to be tested is calculated by XLFIT5.0 (IDBS).

T1 sequence (Q9NZQ7 19-238 limits assumed): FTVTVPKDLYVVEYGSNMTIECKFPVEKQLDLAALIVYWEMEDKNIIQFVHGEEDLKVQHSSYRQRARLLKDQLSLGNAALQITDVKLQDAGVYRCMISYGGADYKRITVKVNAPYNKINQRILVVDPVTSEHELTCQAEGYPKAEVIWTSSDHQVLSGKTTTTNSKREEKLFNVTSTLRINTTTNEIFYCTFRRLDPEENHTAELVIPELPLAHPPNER

Structure (SMILES)	IC50 (PD-1/PD-L1) [nM]	EC50 [1] [nM]
COc1cc(/C=C/c2cccc(-c3cccc(-c4nc5cc(CN6CC[C@@H](C(=O)O)C6)cc(C#N)c5o4)c3C)c2C)c(C(F)(F)F)cc1CN1CC[C@H](O)C1 [Z-29]	2	109
Cc1cc(/C=C/c2nccc(-c3cccc(-c4nc5cc(CN6CCC(C(=O)O)C6)cc(Cl)c5o4)c3C)c2C#N)c(C(F)(F)F)cc1CN1CC[C@@H](O)C1 (stereo partly shown) [Z-48]	–	70
CCOC(=O)[C@@H]1CCN(Cc2cc(C#N)c3oc(-c4cccc(-c5cccc(/C=C/c6cc(OC)c(CN7CC[C@@H](O)C7)cc6C(F)(F)F)c5C)c4C)nc3c2)C1 [Z-45]	–	70
COc1cc(/C=C/c2cccc(-c3cccc(-c4cnc(CNC[C@@H]5CCC(=O)N5)c(OC)n4)c3Cl)c2C)c(C(F)(F)F)cc1CN1CC[C@@H](C(=O)O)C1 [Z-58]	–	78
COc1cc(/C=C/c2cccc(-c3cccc(-c4nc5cc(CN6CC[C@@H](O)C6)ccc5o4)c3C)c2C#N)c(C(F)(F)F)cc1CN1CC[C@@H](C(=O)O)C1 [Z-19]	2	–
COc1cc(/C=C/c2cccc(-c3cccc(-c4nc5cc(CN6CC[C@@H](C(=O)O)C6)ccc5o4)c3C)c2C)c(C(F)(F)F)cc1CN1CC[C@H](O)C1 [Z-31]	2	–
Cc1cc(/C=C/c2nccc(-c3cccc(NC(=O)c4ccc(CN5CCOCC5)cn4)c3C)c2C#N)c(Cl)cc1CN1CCCC[C@H]1C(=O)O [Z-71]	5	–
COc1cc(/C=C/c2cccc(-c3cccc(Nc4n[nH]c5ccc(CN6CC[C@@H](O)C6)cc45)c3C)c2C)c(C(F)(F)F)cc1CN1CC[C@@H](C(=O)O)C1 [Z-15, (R)-1-(4-((E)-2-(3′-((5-(((R)-3-hydroxypyrrolidin-1-yl)methyl)-1H-indazole-3-yl)amino)-2,2′-dimethyl-[1,1′-biphenyl]-3-yl)vinyl)-2-methoxy-5-(trifluoromethyl)benzyl)pyrrolidine-3-carboxylic Acid]	3	–
Cc1cc(/C=C/c2nccc(-c3cccc(NC(=O)c4nc5c(n4C)CCN(C4CCOCC4)C5)c3C)c2C#N)c(Cl)cc1CN1CCCC[C@H]1C(=O)O [Z-73, (S, E)-1-(5-chloro-4-(2-(3-cyano-4-(2-methyl-3-(l-methyl-5-(tetrahydro-2H-pyran-4-yl)-4,5,6,7-tetrahydro-1H-imidazo[4,5-c]pyridine-2-carboxamido)phenyl)pyridin-2-yl)vinyl)-2-methylbenzyl) piperidine-2-carboxylic Acid]	2	–
Cc1cc(CN2CCCC[C@H]2C(=O)O)c(C)cc1/C=C/c1nccc(-c2cccc(NC(=O)c3ccc(CN4CC[C@@H](O)C4)cn3)c2C)c1C#N [Z-72]	2	–
COc1cc(/C=C/c2cccc(-c3cccc(NC(=O)c4cc(OC)c(CN5CC[C@@H](O)C5)cn4)c3C)c2C)c(C(F)(F)F)cc1CN1CCC(C(=O)NS(C)(=O)=O)C1 (stereo partly shown) [Z-139]	–	7
COc1cc(/C=C/c2cccc(-c3cccc(Nc4nccc5cc(CN6CC[C@@H](O)C6)c(C(F)(F)F)nc45)c3C)c2C)c(C(F)(F)F)cc1CN1CC[C@@H](C(=O)O)C1 [Z-10, (R)-1-(4-((E)-2-(3′-((3-(((R)-3-hydroxypyrrolidin-1-yl)methyl)-2-(trifluoromethyl)-1,7-naphthyridin-8-yl)amino)-2,2′-dimethyl-[1,1′-biphenyl]-3-yl)vinyl)-2-methoxy-5-(trifluoromethyl)benzyl)pyrrolidine-3-carboxylic Acid]	3	–

Now from value to molecule, other results behind:

IC50 (PD-1/PD-L1) [nM]	Structure (SMILES)	EC50 [1] [nM]
1	COc1cc(/C=C/c2cccc(-c3cccc(-c4nc5cc(CN6CC[C@@H](O)C6)cc(C#N)c5o4)c3C)c2C#N)c(C(F)(F)F)cc1CN1CC[C@@H](C(=O)O)C1 [Z-43]	72
2	COc1cc(/C=C/c2cccc(-c3cccc(-c4nc5c(c(OC)n4)CN(C[C@@H]4CCC(=O)N4)CC5)c3C)c2C)c(C(F)(F)F)cc1CN1CC[C@@H](C(=O)O)C1 [Z-60, (R)-1-(2-methoxy-4-((E)-2-(3′-(4-methoxy-6-(((S)-5-oxopyrrolidin-2-yl)methyl)-5,6,7,8-tetrahydropyrido[4,3-d]pyrimidin-2-yl)-2,2′-dimethyl-[1,1′-biphenyl]-3-yl)vinyl)-5-(trifluoromethyl)benzyl) pyrrolidine-3-carboxylic Acid]	79
1	Cc1cc(/C=C/c2nccc(-c3cccc(NC(=O)c4ccc(CN5CC[C@@H](O)C5)cn4)c3Cl)c2C#N)c(Cl)cc1CN1CCCC[C@H]1C(=O)O [Z-81]	44
< 1	COc1cc(/C=C/c2ccnc(-c3cccc(Nc4nccc5cc(CN6CC[C@@H](O)C6)cnc45)c3C)c2C#N)c(C(F)(F)F)cc1CN1CC[C@@H](C(=O)O)C1 [Z-14]	208
1	Cc1cc(/C=C/c2nccc(-c3cccc(NC(=O)c4ccc(CN5CC[C@@H](O)C5)cn4)c3C)c2C#N)c(Cl)cc1CN1CCC(C)(C(=O)O)C1 (stereo partly drawn) [Z-67, 1-(5-chloro-4-((E)-2-(3-cyano-4-(3-(5-(((R)-3-hydroxypyrrolidin-1-yl)methyl)picolinamido)-2-methylphenyl)pyridin-2-yl)vinyl)-2-methylbenzyl)-3-methylpyrrolidine-3-carboxylic Acid]	–
< 1	Cc1cc(/C=C/c2nccc(-c3cccc(NC(=O)c4ccc(CNCCO)cn4)c3C)c2C#N)c(F)cc1CNCCO [Z-4, (E)-N-(3-(3-cyano-2-(2-fluoro-4-(((2-hydroxyethyl)amino)methyl)-5-methylstyryl)pyridin-4-yl)-2-methylphenyl)-5-(((2-hydroxyethyl)amino)methyl)picolinamide]	–
1	Cc1cc(/C=C/c2nccc(-c3cccc(-c4nc5cc(CN6CC[C@@H](O)C6)cc(Cl)c5o4)c3C)c2C#N)c(Cl)cc1CN1CC[C@@H](C(=O)O)C1 [Z-46]	–
1	COc1cc(/C=C/c2cccc(-c3cccc(NC(=O)c4ccc(CN5CC[C@@H](O)C5)cn4)c3F)c2F)c(C(F)(F)F)cc1CN1CC[C@@H](C(=O)O)C1 [Z-100]	–
1	Cc1cc(/C=C/c2nccc(-c3cccc(NC(=O)c4ccc(CN5CC[C@@H](O)C5)cn4)c3C)c2C#N)c(Cl)cc1CN1CC[C@@H](C(=O)O)C1 [Z-68]	–
1	COc1cc(/C=C/c2cccc(-c3cccc(-c4nc5cc(CN6CC[C@@H](O)C6)ccc5o4)c3C)c2C)c(C(F)(F)F)cc1CN1CC[C@@H](C(=O)O)C1 [Z-16]	–
1	Cc1cc(/C=C/c2nccc(-c3cccc(NC(=O)c4ccc(CN5CC[C@@H](O)C5)cn4)c3C)c2C#N)c(C2CC2)cc1CN1CC[C@@H](C(=O)O)C1 [Z-79, (R)-1-(4-((E)-2-(3-cyano-4-(3-(5-(((R)-3-hydroxypyrrolidin-1-yl)methyl)picolinamido)-2-methylphenyl)pyridin-2-yl)vinyl)-5-cyclopropyl-2-methylbenzyl)pyrrolidine-3-carboxylic Acid]	–
1	COc1cc(/C=C/c2cccc(-c3cccc(NC(=O)c4cc(OC)c(CN5CC[C@@H](O)C5)cn4)c3C)c2C)c(C(F)(F)F)cc1CN1CC(C(=O)O)C1 [Z-130]	–
< 1	Cc1cc(/C=C/c2nccc(-c3cccc(NC(=O)c4ccc(CN5CC[C@@H](O)C5)cn4)c3C)c2C)c(Cl)cc1CN1CC[C@@H](C(=O)O)C1 [Z-65]	–
1	COc1cc(/C=C/c2cccc(-c3cccc(-c4nc5cc(CN6CC[C@@H](O)C6)cc(C#N)c5o4)c3C)c2C)c(C(F)(F)F)cc1CN1CC[C@@H](O)C1 [Z-37]	–
